Reference: paper PMC12454493, “Insight on novel sulfamoylphenyl pyrazole derivatives as anticancer carbonic anhydrase inhibitors” (Molecular Diversity, 2024)
“And” between values parts separate entries of the source, which are not always exact repeats. Equal entries are not always repeated.

Key:
COLO 205 = test: NCI-60 one-dose SRB screen (Colon Cancer); type: cell-based; conditions: Homo sapiens, single dose 10 µM, 48 h, read-out: Growth inhibition percent (GI %)
Experimental: (§1) The National Cancer Institute (NCI) Developmental Therapeutic Program (www.dtp.nci.nih.gov) selected the 20 novel synthesized compounds 4a-e, 5a-e, 6a-c, 9a-e, 10 and 11 to test for their anticancer activity at a single dose of 10 µM using SRB assay. […] Supplementary Data S3; Table S1 presents the detailed screening results of the most promising compounds. The preliminary screening’s detailed results for the remaining compounds are elucidated in the (Supplementary Data S3; Table S2).
(§2) The guidelines of the Drug Evaluation Branch’s protocol at the NCI in Bethesda served as the basis for the in vitro anticancer screening assays. at one dose 10 µM against a panel of 60 cancer cell lines. The human tumor cell lines used belonged to nine panels: leukemia, melanoma, lung, colon, CNS, ovarian, renal, prostate and breast cancers using the sulforhodamine B (SRB) assay in a 48 h drug exposure protocol.

CAKI-1 = test: NCI-60 one-dose SRB screen (Renal Cancer); type: cell-based; conditions: Homo sapiens, single dose 10 µM, 48 h, read-out: Growth inhibition percent (GI %)
Experimental: as §1, §2

UO-31 = test: NCI-60 one-dose SRB screen (Renal Cancer); type: cell-based; conditions: Homo sapiens, single dose 10 µM, 48 h, read-out: Growth inhibition percent (GI %)
Experimental: as §1, §2

A498 = test: NCI-60 one-dose SRB screen (Renal Cancer); type: cell-based; conditions: Homo sapiens, single dose 10 µM, 48 h, read-out: Growth inhibition percent (GI %)
Experimental: as §1, §2

SN12C = test: NCI-60 one-dose SRB screen (Renal Cancer); type: cell-based; conditions: Homo sapiens, single dose 10 µM, 48 h, read-out: Growth inhibition percent (GI %)
Experimental: as §1, §2

ACHN = test: NCI-60 one-dose SRB screen (Renal Cancer); type: cell-based; conditions: Homo sapiens, single dose 10 µM, 48 h, read-out: Growth inhibition percent (GI %)
Experimental: as §1, §2

RXF 393 = test: NCI-60 one-dose SRB screen (Renal Cancer); type: cell-based; conditions: Homo sapiens, single dose 10 µM, 48 h, read-out: Growth inhibition percent (GI %)
Experimental: as §1, §2

786-0 = test: NCI-60 one-dose SRB screen (Renal Cancer); type: cell-based; conditions: Homo sapiens, single dose 10 µM, 48 h, read-out: Growth inhibition percent (GI %)
Experimental: as §1, §2

TK-10 = test: NCI-60 one-dose SRB screen (Renal Cancer); type: cell-based; conditions: Homo sapiens, single dose 10 µM, 48 h, read-out: Growth inhibition percent (GI %)
Experimental: as §1, §2

MCF-7 = test: NCI-60 one-dose SRB screen (Breast Cancer); type: cell-based; conditions: Homo sapiens, MCF7, single dose 10 µM, 48 h, read-out: Growth inhibition percent (GI %)
Experimental: as §1, §2

BT-549 = test: NCI-60 one-dose SRB screen (Breast Cancer); type: cell-based; conditions: Homo sapiens, single dose 10 µM, 48 h, read-out: Growth inhibition percent (GI %)
Experimental: as §1, §2

T-47D = test: NCI-60 one-dose SRB screen (Breast Cancer); type: cell-based; conditions: Homo sapiens, T47D, single dose 10 µM, 48 h, read-out: Growth inhibition percent (GI %)
Experimental: as §1, §2

HS 578T = test: NCI-60 one-dose SRB screen (Breast Cancer); type: cell-based; conditions: Homo sapiens, single dose 10 µM, 48 h, read-out: Growth inhibition percent (GI %)
Experimental: as §1, §2

MDA-MB-468 = test: NCI-60 one-dose SRB screen (Breast Cancer); type: cell-based; conditions: Homo sapiens, single dose 10 µM, 48 h, read-out: Growth inhibition percent (GI %)
Experimental: as §1, §2

MDA-MB-231/ATCC = test: NCI-60 one-dose SRB screen (Breast Cancer); type: cell-based; conditions: Homo sapiens, single dose 10 µM, 48 h, read-out: Growth inhibition percent (GI %)
Experimental: as §1, §2

M14 = test: NCI-60 one-dose SRB screen (Melanoma); type: cell-based; conditions: Homo sapiens, single dose 10 µM, 48 h, read-out: Growth inhibition percent (GI %)
Experimental: as §1, §2

LOX IMVI = test: NCI-60 one-dose SRB screen (Melanoma); type: cell-based; conditions: Homo sapiens, single dose 10 µM, 48 h, read-out: Growth inhibition percent (GI %)
Experimental: as §1, §2

UACC-62 = test: NCI-60 one-dose SRB screen (Melanoma); type: cell-based; conditions: Homo sapiens, single dose 10 µM, 48 h, read-out: Growth inhibition percent (GI %)
Experimental: as §1, §2

MALME-3M = test: NCI-60 one-dose SRB screen (Melanoma); type: cell-based; conditions: Homo sapiens, single dose 10 µM, 48 h, read-out: Growth inhibition percent (GI %)
Experimental: as §1, §2

SK-MEL-5 = test: NCI-60 one-dose SRB screen (Melanoma); type: cell-based; conditions: Homo sapiens, single dose 10 µM, 48 h, read-out: Growth inhibition percent (GI %)
Experimental: as §1, §2

UACC-257 = test: NCI-60 one-dose SRB screen (Melanoma); type: cell-based; conditions: Homo sapiens, single dose 10 µM, 48 h, read-out: Growth inhibition percent (GI %)
Experimental: as §1, §2

MDA-MB-435 = test: NCI-60 one-dose SRB screen (Melanoma); type: cell-based; conditions: Homo sapiens, single dose 10 µM, 48 h, read-out: Growth inhibition percent (GI %)
Experimental: as §1, §2

SK-MEL-28 = test: NCI-60 one-dose SRB screen (Melanoma); type: cell-based; conditions: Homo sapiens, single dose 10 µM, 48 h, read-out: Growth inhibition percent (GI %)
Experimental: as §1, §2

hCA XII = hCA XII (Homo sapiens, UniProt O43570); test: CA inhibitory activity, spectrophotometric p-NPA assay; type: biochemical; conditions: p-NPA substrate, pH 7.5, 25 °C, triplicate; read-out: IC50 (µM) ± SD hCA XII
SK-OV-3 = test: NCI-60 one-dose SRB screen (Ovarian cancer); type: cell-based; conditions: Homo sapiens, single dose 10 µM, 48 h, read-out: Growth inhibition percent (GI %)
Experimental: as §1, §2

OVCAR-4 = test: NCI-60 one-dose SRB screen (Ovarian cancer); type: cell-based; conditions: Homo sapiens, single dose 10 µM, 48 h, read-out: Growth inhibition percent (GI %)
Experimental: as §1, §2

OVCAR-5 = test: NCI-60 one-dose SRB screen (Ovarian cancer); type: cell-based; conditions: Homo sapiens, single dose 10 µM, 48 h, read-out: Growth inhibition percent (GI %)
Experimental: as §1, §2

OVCAR-8 = test: NCI-60 one-dose SRB screen (Ovarian cancer); type: cell-based; conditions: Homo sapiens, single dose 10 µM, 48 h, read-out: Growth inhibition percent (GI %)
Experimental: as §1, §2

IGROV1 = test: NCI-60 one-dose SRB screen (Ovarian cancer); type: cell-based; conditions: Homo sapiens, IGROV-1, single dose 10 µM, 48 h, read-out: Growth inhibition percent (GI %)
Experimental: as §1, §2

OVCAR-3 = test: NCI-60 one-dose SRB screen (Ovarian cancer); type: cell-based; conditions: Homo sapiens, single dose 10 µM, 48 h, read-out: Growth inhibition percent (GI %)
Experimental: as §1, §2

Chain of hCA XII (O43570 25-354): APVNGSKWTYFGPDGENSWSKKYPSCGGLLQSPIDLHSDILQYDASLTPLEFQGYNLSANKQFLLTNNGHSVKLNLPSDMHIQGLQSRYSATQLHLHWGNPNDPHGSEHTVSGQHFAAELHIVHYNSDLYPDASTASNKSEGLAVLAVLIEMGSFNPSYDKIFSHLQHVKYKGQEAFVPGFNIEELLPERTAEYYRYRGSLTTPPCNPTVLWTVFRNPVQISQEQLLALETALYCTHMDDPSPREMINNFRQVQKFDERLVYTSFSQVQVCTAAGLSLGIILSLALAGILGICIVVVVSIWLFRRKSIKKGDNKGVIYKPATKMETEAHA

## NS(=O)(=O)c1ccc(NC(=O)COC(=O)c2cn(-c3ccc(S(N)(=O)=O)cc3)nc2-c2ccccc2)cc1 [Compound 4a, 2-Oxo-2-[(4-sulfamoylphenyl)amino] ethyl 3-phenyl-1-(4-sulfamoylphenyl)-1H-pyrazole-4-carboxylate]
COLO 205
  inhibition at 10 µM: < 5%
CAKI-1
  inhibition at 10 µM: 11.6%
UO-31
  inhibition at 10 µM: 15%
A498
  inhibition at 10 µM: < 5%
SN12C
  inhibition at 10 µM: < 5%
ACHN
  inhibition at 10 µM: < 5%
RXF 393
  inhibition at 10 µM: < 5%
786-0
  inhibition at 10 µM: 31.2%
TK-10
  inhibition at 10 µM: < 5%
MCF-7
  inhibition at 10 µM: < 5%
BT-549
  inhibition at 10 µM: 43.4%
T-47D
  inhibition at 10 µM: < 5%
HS 578T
  inhibition at 10 µM: < 5%
MDA-MB-468
  inhibition at 10 µM: < 5%
MDA-MB-231/ATCC
  inhibition at 10 µM: 10.5%
M14
  inhibition at 10 µM: 23.2%
LOX IMVI
  inhibition at 10 µM: < 5%
UACC-62
  inhibition at 10 µM: < 5%
MALME-3M
  inhibition at 10 µM: 8.55%
SK-MEL-5
  inhibition at 10 µM: < 5%
UACC-257
  inhibition at 10 µM: < 5%
MDA-MB-435
  inhibition at 10 µM: < 5%
SK-MEL-28
  inhibition at 10 µM: < 5%
hCA XII
  IC50: 0.22 µM and 0.226 µM
SK-OV-3
  inhibition at 10 µM: < 5%
OVCAR-4
  inhibition at 10 µM: < 5%
OVCAR-5
  inhibition at 10 µM: < 5%
OVCAR-8
  inhibition at 10 µM: < 5%
IGROV1
  inhibition at 10 µM: < 5%
OVCAR-3
  inhibition at 10 µM: < 5%
